We go through 15 compounds from patent publication US5762960A (Trustees of Tufts College, priority 1996, dated 1998).

Molecules are shown by their SMILES. Read-outs that look alike come from different tables or passages of the source.

In one data set the test system is norepinephrine uptake. Set-up: Amine Uptakes Blocking Activity Norepinephrine: key to the marks not given beside the values. The note with it: cited from earlier work; for Amine Uptakes Blocking Activity Norepinephrine: Table 3; for Interaction and blocking activity at the norepinephrine receptor site: in words, text commenting on Table 6.
The conditions of data set [1]: cited from earlier work.
The next data set concerns dopamine receptors. The note with it: in words, footnote 3 and text on Table 6; cited from earlier work.
In another data set the test system is dopamine uptake. Conditions: in words, footnote 5 of Table 6; cited from earlier work.
The subject of data set [2] is canine affective aggression behavior. Kind of data set: Case histories: treatment of household dogs exhibiting canine affective aggression.
Excerpt: The clinical diagnosis was affective aggression behavior which was dominance aggression and/fear aggression.
Where [3] appears, read: Table 6, parent compound plus active metabolite.
Setting [4] is: Case 4, Cocker Spaniel, orally 25 mg daily, after two months.

For `CN(C)CCC=C1c2ccccc2CCc2ccccc21` [Amitriptyline], in the data set on norepinephrine uptake, the “Amine Uptakes Blocking Activity Norepinephrine” value is “++”; the “Interaction and blocking activity at the norepinephrine receptor site” value is reported as “modest or slight”. In addition, the Half-life in data set [1] (Table 3) is 31 to 46 h. The “Therapeutic Plasma Level” value in data set [1] (Table 3, marked ^1, footnote printed only under Table 6: parent compound plus active metabolite) is 110 to 250 ng/mL. In addition, the Half-life in data set [1] (Table 6) is 31 to 46 h. Further, in data set [1] (setting [3]), the Therapeutic plasma level was 110 to 250 ng/mL. In addition, in data set [1] (in vivo), the “Time to Reach Steady State” value was 4 to 10 days and the “Time to reach steady state” value is 4 to 10 days.
With `Clc1ccc2c(c1)C(N1CCNCC1)=Nc1ccccc1O2` [Amoxapine, amoxapine], the Half-life in data set [1] (human, in vivo) is 8 h. Besides, in data set [1] (in vivo), the Therapeutic plasma level is 200 to 500 ng/mL and the “Time to reach steady state” value is 2 to 7 days. The “Dopamine receptor blockade / interaction” value with dopamine receptors is “blocks dopamine receptors”.
With `CC(NC(C)(C)C)C(=O)c1cccc(Cl)c1` (stereo not drawn) [Bupropion, bupropion], the Dopamine uptake inhibition result with dopamine uptake is reported as “Inhibits dopamine uptake”. For the same compound, in data set [1] (Table 6), the Half-life is 8 to 24 h and the “Time to reach steady state” value was 1.5 to 5 days.
On to `CN(C)CCCN1c2ccccc2CCc2ccc(Cl)cc21` [Clomipramine, 3-chloro-10,11-dihydro-N,N-dimethyl-5H-benzo-[b,f]azepine-5-propamine], for which, in the data set on norepinephrine uptake, the “Amine Uptakes Blocking Activity Norepinephrine” value is “++”; the “Interaction and blocking activity at the norepinephrine receptor site” value is “modest or slight”. In data set [1] (in vivo), the “Therapeutic Plasma Level” value is 80 to 100 ng/mL, the Therapeutic plasma level is 80 to 100 ng/mL, the “Time to Reach Steady State” value was 7 to 14 days and the “Time to reach steady state” value was 7 to 14 days. For the same compound, the “Owner-noted change in aggressive behavior” value in data set [2] (Case 1, Australian Shepherd, 25 mg daily, after one week's treatment) is reported as “slight improvement”. For the same compound, the “Improvement in aggression behavior” value in data set [2] (Case 1, Australian Shepherd, 25 mg daily, after several weeks' treatment) was “maintained”. Besides, the “Owner-rated improvement of behavior” value in data set [2] (Case 1, Australian Shepherd, 25 mg daily, three weeks after start) is reported as 50-75%. Also, in data set [2] (Case 2, Lhasa Apso, dominance and territorial aggression, approx. 1 mg/kg twice a day for one week then approx. […] twice a day, after two weeks), the “Owner rating of behavior” value was “slightly improved”. In addition, the “Persistence of improvement in aggressive behavior” value in data set [2] (Case 2, Lhasa Apso, through the eight weeks following termination of administration) was “sustained”. In data set [2] (Case 3, German Shepherd, fear and territorial aggression, once a day slightly less than 1 mg/kg, after two weeks), the Improvement in behavior entry is recorded as “Moderate improvement”. Besides, the Improvement in behavior result in data set [2] (Case 3, German Shepherd, once a day slightly less than 1 mg/kg, eight weeks after initiation) is reported as “moderate improvement”. The “Owner-rated improvement in behavior” value in data set [2] (Case 4, Cocker Spaniel, dominance/fear aggression, orally 25 mg daily, after one week) is on record as 25-50%. In data set [2] (Case 4, Cocker Spaniel, orally 25 mg daily, after one month), the Owner-reported behavior result is recorded as “much calmer on the street”. In addition, in data set [2] (setting [4]), the Improvement in behavior is listed as 50-75% and the Owner-reported behavior entry is “essentially non-aggressive”. Also, in data set [2] (Case 4, Cocker Spaniel, orally 25 mg daily, after two weeks), the Owner-reported behavior entry was “fine in the house”. Besides, in data set [2] (conclusion from the four case histories, no behavior modification therapy), the “Overall effectiveness for treatment of interspecific affective aggression in dogs” value is on record as “very effective”.
`CNCCCN1c2ccccc2CCc2ccccc21` [Desipramine, desipramine]: in data set [1] (human, in vivo), the Half-life was 12 to 24 h. Besides, in data set [1] (in vivo), the Therapeutic plasma level is 125 to 300 ng/mL and the “Time to reach steady state” value is 2 to 11 days.
Take `CN(C)CCC=C1c2ccccc2COc2ccccc21` [Doxepin, doxepin]: the Half-life in data set [1] (human, in vivo) was 8 to 24 h. Besides, the “Time to reach steady state” value in data set [1] (in vivo) was 2 to 8 days.
As for `CNCCC(Oc1ccc(C(F)(F)F)cc1)c1ccccc1` (stereo not drawn) [Fluoxetine, fluoxetine], the “Time to reach steady state” value in data set [1] (in vivo) was 2-4 weeks.
`CN(C)CCCN1c2ccccc2CCc2ccccc21` [Imipramine, imipramine]: the “Time to reach steady state” value in data set [1] (in vivo) was 2 to 5 days.
Regarding `CNCCCC12CCC(c3ccccc31)c1ccccc12` [Maprotiline, maprotiline], in data set [1] (Table 6), the “Time to reach steady state” value is 6 to 10 days. Moreover, the Therapeutic plasma level in data set [1] (setting [3]) was 200 to 300 ng/mL. For the same compound, the Half-life in data set [1] (human, in vivo) was 21 to 25 h.
As to `CNCCC=C1c2ccccc2CCc2ccccc21` [Nortriptyline, 3-(10,11-Dihydro-5H-dibenzo[a,d]cyclohepten-5-ylidene)-N-methyl-1-propamine], in data set [1] (Table 3), the Half-life was 18 to 44 h and the “Time to Reach Steady State” value was 4 to 19 days. In addition, in data set [1] (Table 6), the Half-life was 18 to 44 h and the “Time to reach steady state” value was 4 to 19 days.
Turning to `Fc1ccc([C@@H]2CCNC[C@H]2COc2ccc3c(c2)OCO3)cc1` [Paroxetine, paroxetine], the Half-life in data set [1] (Table 6) was 10 to 24 h. Moreover, the “Time to reach steady state” value in data set [1] (in vivo) is 7 to 14 days.
Turning to `CNCCCC1c2ccccc2C=Cc2ccccc21` [Protriptyline, protriptyline], the Half-life in data set [1] (human, in vivo) was 67 to 89 h. Moreover, in data set [1] (in vivo), the Therapeutic plasma level was 100 to 200 ng/mL and the “Time to reach steady state” value was 14 to 19 days.
For the compound `CN[C@H]1CC[C@@H](c2ccc(Cl)c(Cl)c2)c2ccccc21` [Sertraline, sertraline], the “Time to reach steady state” value in data set [1] (in vivo) was 7 days.
As to `CC(CN(C)C)CN1c2ccccc2CCc2ccccc21` (stereo not drawn) [Trimipramine, trimipramine], the Half-life in data set [1] (Table 6) was 7 to 30 h. Further, the “Time to reach steady state” value in data set [1] (in vivo) is 2 to 6 days.
For `CC(C)NCC(O)COc1cccc2ccccc12` (stereo not drawn) [inclerol], the “Effect on aggressive behavior” value in data set [2] (Case 1, Australian Shepherd, 14-year old castrated male, beta-blocker for one week) is “only increased his aggressive behavior”.
